Source: ChEMBL document CHEMBL2396621, “Design, synthesis and biological evaluation of 2-mercapto-3-phenethylquinazoline bearing anilide fragments as potential antitumor agents: molecular docking study” (2013)

Assays:
Assay type in all cases: functional
KM12 = assay: Cytotoxicity against human KM12 cells assessed as growth inhibition at 10 uM after 48 hrs by coulter counter analysis; conditions: KM12, 48 h, read-out: GI
OVCAR-3 = assay: Cytotoxicity against human OVCAR3 cells assessed as growth inhibition at 10 uM after 48 hrs by coulter counter analysis; conditions: OVCAR-3, 48 h, read-out: GI
HOP-62 = assay: Cytotoxicity against human HOP62 cells assessed as growth inhibition at 10 uM after 48 hrs by coulter counter analysis; conditions: HOP-62, 48 h, read-out: GI
HT-29 = assay: Cytotoxicity against human HT-29 cells assessed as growth inhibition at 10 uM after 48 hrs by coulter counter analysis; conditions: HT-29, 48 h, read-out: GI
MDA-MB-468 = assay: Cytotoxicity against human MDA-MB-468 cells assessed as growth inhibition at 10 uM after 48 hrs by coulter counter analysis; conditions: MDA-MB-468, 48 h, read-out: GI
UACC-62 = assay: Cytotoxicity against human UACC62 cells assessed as growth inhibition at 10 uM after 48 hrs by coulter counter analysis; conditions: UACC-62, 48 h, read-out: GI
UO-31 = assay: Cytotoxicity against human UO31 cells assessed as growth inhibition at 10 uM after 48 hrs by coulter counter analysis; conditions: UO-31, 48 h, read-out: GI
SF-268 = assay: Cytotoxicity against human SF268 cells assessed as growth inhibition at 10 uM after 48 hrs by coulter counter analysis; conditions: SF-268, 48 h, read-out: GI
HCC 2998 = assay: Cytotoxicity against human HCC2998 cells assessed as growth inhibition at 10 uM after 48 hrs by coulter counter analysis; conditions: HCC 2998, 48 h, read-out: GI
Hs-578T = assay: Cytotoxicity against human Hs578T cells assessed as growth inhibition at 10 uM after 48 hrs by coulter counter analysis; conditions: read-out: GI
DU-145 = assay: Cytotoxicity against human DU145 cells assessed as growth inhibition at 10 uM after 48 hrs by coulter counter analysis; conditions: DU-145, 48 h, read-out: GI
M14 = assay: Cytotoxicity against human M14 cells assessed as growth inhibition at 10 uM after 48 hrs by coulter counter analysis; conditions: M14, 48 h, read-out: GI
MDA-MB-435 = assay: Cytotoxicity against human MDA-MB-435 cells assessed as growth inhibition at 10 uM after 48 hrs by coulter counter analysis; conditions: MDA-MB-435, 48 h, read-out: GI
HCT-15 = assay: Cytotoxicity against human HCT15 cells assessed as growth inhibition at 10 uM after 48 hrs by coulter counter analysis; conditions: HCT-15, 48 h, read-out: GI
TK-10 = assay: Cytotoxicity against human TK10 cells assessed as growth inhibition at 10 uM after 48 hrs by coulter counter analysis; conditions: TK-10, 48 h, read-out: GI
PC-3 = assay: Cytotoxicity against human PC3 cells assessed as growth inhibition at 10 uM after 48 hrs by coulter counter analysis; conditions: PC-3, 48 h, read-out: GI
IGROV-1 = assay: Cytotoxicity against human IGROV1 cells assessed as growth inhibition at 10 uM after 48 hrs by coulter counter analysis; conditions: IGROV-1, 48 h, read-out: GI
SF-295 = assay: Cytotoxicity against human SF295 cells assessed as growth inhibition at 10 uM after 48 hrs by coulter counter analysis; conditions: SF-295, 48 h, read-out: GI
NCI-H322M = assay: Cytotoxicity against human NCI-H322M cells assessed as growth inhibition at 10 uM after 48 hrs by coulter counter analysis; conditions: read-out: GI
[1] = Cytotoxicity against human NCI-ADR-RES cells assessed as growth inhibition at 10 uM after 48 hrs by coulter counter analysis; conditions: read-out: GI
OVCAR-8 = assay: Cytotoxicity against human OVCAR8 cells assessed as growth inhibition at 10 uM after 48 hrs by coulter counter analysis; conditions: OVCAR-8, 48 h, read-out: GI
SK-MEL-28 = assay: Cytotoxicity against human SK-MEL-28 cells assessed as growth inhibition at 10 uM after 48 hrs by coulter counter analysis; conditions: SK-MEL-28, 48 h, read-out: GI
NCI-H460 = assay: Cytotoxicity against human NCI-H460 cells assessed as growth inhibition at 10 uM after 48 hrs by coulter counter analysis; conditions: NCI-H460, 48 h, read-out: GI
[2] = Cytotoxicity against human EKVX cells assessed as growth inhibition at 10 uM after 48 hrs by coulter counter analysis; conditions: read-out: GI
NCI-H23 = assay: Cytotoxicity against human NCI-H23 cells assessed as growth inhibition at 10 uM after 48 hrs by coulter counter analysis; conditions: NCI-H23, 48 h, read-out: GI
SK-MEL-5 = assay: Cytotoxicity against human SK-MEL-5 cells assessed as growth inhibition at 10 uM after 48 hrs by coulter counter analysis; conditions: SK-MEL-5, 48 h, read-out: GI
SNB-75 = assay: Cytotoxicity against human SNB75 cells assessed as growth inhibition at 10 uM after 48 hrs by coulter counter analysis; conditions: SNB-75, 48 h, read-out: GI
UACC-257 = assay: Cytotoxicity against human UACC257 cells assessed as growth inhibition at 10 uM after 48 hrs by coulter counter analysis; conditions: UACC-257, 48 h, read-out: GI
COLO 205 = assay: Cytotoxicity against human COLO205 cells assessed as growth inhibition at 10 uM after 48 hrs by coulter counter analysis; conditions: COLO 205, 48 h, read-out: GI
786-0 = assay: Cytotoxicity against human 786-0 cells assessed as growth inhibition at 10 uM after 48 hrs by coulter counter analysis; conditions: 786-0, 48 h, read-out: GI
NCI-H226 = assay: Cytotoxicity against human NCI-H226 cells assessed as growth inhibition at 10 uM after 48 hrs by coulter counter analysis; conditions: NCI-H226, 48 h, read-out: GI
HCT-116 = assay: Cytotoxicity against human HCT116 cells assessed as growth inhibition at 10 uM after 48 hrs by coulter counter analysis; conditions: HCT-116, 48 h, read-out: GI
ACHN = assay: Cytotoxicity against human ACHN cells assessed as growth inhibition at 10 uM after 48 hrs by coulter counter analysis; conditions: read-out: GI
CAKI-1 = assay: Cytotoxicity against human Caki1 cells assessed as growth inhibition at 10 uM after 48 hrs by coulter counter analysis; conditions: CAKI-1, 48 h, read-out: GI
OVCAR-4 = assay: Cytotoxicity against human OVCAR4 cells assessed as growth inhibition at 10 uM after 48 hrs by coulter counter analysis; conditions: OVCAR-4, 48 h, read-out: GI
U-251 = assay: Cytotoxicity against human U251 cells assessed as growth inhibition at 10 uM after 48 hrs by coulter counter analysis; conditions: U-251, 48 h, read-out: GI
LOX IMVI = assay: Cytotoxicity against human LOXIMVI cells assessed as growth inhibition at 10 uM after 48 hrs by coulter counter analysis; conditions: read-out: GI

| Compound | inhibition of growth at 10 µM (KM12) [%] | inhibition of growth at 10 µM (OVCAR-3) [%] | inhibition of growth at 10 µM (HOP-62) [%] | inhibition of growth at 10 µM (HT-29) [%] | inhibition of growth at 10 µM (MDA-MB-468) [%] | inhibition of growth at 10 µM (UACC-62) [%] | inhibition of growth at 10 µM (UO-31) [%] | inhibition of growth at 10 µM (SF-268) [%] | inhibition of growth at 10 µM (HCC 2998) [%] | inhibition of growth at 10 µM (Hs-578T) [%] | inhibition of growth at 10 µM (DU-145) [%] | inhibition of growth at 10 µM (M14) [%] | inhibition of growth at 10 µM (MDA-MB-435) [%] | inhibition of growth at 10 µM (HCT-15) [%] | inhibition of growth at 10 µM (TK-10) [%] | inhibition of growth at 10 µM (PC-3) [%] | inhibition of growth at 10 µM (IGROV-1) [%] | inhibition of growth at 10 µM (SF-295) [%] | inhibition of growth at 10 µM (NCI-H322M) [%] | inhibition of growth at 10 µM [1] [%] | further results |
| --- | --- | --- | --- | --- | --- | --- | --- | --- | --- | --- | --- | --- | --- | --- | --- | --- | --- | --- | --- | --- | --- |
| COc1ccc(NC(=O)CSc2nc3ccccc3c(=O)n2CCc2ccccc2)cc1 | 16 | 10 | 52 | < 10 | 13 | 13 | < 10 | 47 | < 10 | 49 | < 10 | 25 | 10 | < 10 | 10 | < 10 | 18 | 21 | 19 | 15 | inhibition of growth at 10 µM (OVCAR-8): 40%; inhibition of growth at 10 µM (SK-MEL-28): 11%; inhibition of growth at 10 µM (NCI-H460): 25%; inhibition of growth at 10 µM [2]: 25%; inhibition of growth at 10 µM (NCI-H23): < 10%; inhibition of growth at 10 µM (SK-MEL-5): 10%; inhibition of growth at 10 µM (SNB-75): 72%; inhibition of growth at 10 µM (UACC-257): 14%; inhibition of growth at 10 µM (COLO 205): < 10%; inhibition of growth at 10 µM (786-0): < 10%; inhibition of growth at 10 µM (NCI-H226): < 10%; inhibition of growth at 10 µM (HCT-116): 13%; inhibition of growth at 10 µM (ACHN): < 10%; inhibition of growth at 10 µM (CAKI-1): 13%; inhibition of growth at 10 µM (OVCAR-4): < 10%; inhibition of growth at 10 µM (U-251): 29%; inhibition of growth at 10 µM (LOX IMVI): < 10% |
| O=C(CSc1nc2ccccc2c(=O)n1CCc1ccccc1)Nc1ccc(Cl)cc1 | 14 | 32 | 40 | < 10 | 36 | 34 | 28 | 40 | < 10 | 45 | 12 | < 10 | 13 | 16 | 19 | 30 | 36 | 32 | 13 | 21 | inhibition of growth at 10 µM (OVCAR-8): 39%; inhibition of growth at 10 µM (SK-MEL-28): 10%; inhibition of growth at 10 µM (NCI-H460): 32%; inhibition of growth at 10 µM [2]: 29%; inhibition of growth at 10 µM (NCI-H23): 21%; inhibition of growth at 10 µM (SK-MEL-5): 22%; inhibition of growth at 10 µM (SNB-75): 63%; inhibition of growth at 10 µM (UACC-257): 18%; inhibition of growth at 10 µM (COLO 205): 15%; inhibition of growth at 10 µM (786-0): 13%; inhibition of growth at 10 µM (NCI-H226): 24%; inhibition of growth at 10 µM (HCT-116): 23%; inhibition of growth at 10 µM (ACHN): 22%; inhibition of growth at 10 µM (CAKI-1): 42%; inhibition of growth at 10 µM (OVCAR-4): 14%; inhibition of growth at 10 µM (U-251): 25%; inhibition of growth at 10 µM (LOX IMVI): 23% |
| O=C(CSc1nc2ccccc2c(=O)n1CCc1ccccc1)Oc1ccc(Cl)cc1 | < 10 | < 10 | 10 | < 10 | < 10 | 11 | < 10 | < 10 | < 10 | 41 | < 10 | < 10 | < 10 | 25 | < 10 | 25 | 15 | < 10 | < 10 | 10 | inhibition of growth at 10 µM (OVCAR-8): < 10%; inhibition of growth at 10 µM (SK-MEL-28): < 10%; inhibition of growth at 10 µM (NCI-H460): < 10%; inhibition of growth at 10 µM [2]: 28%; inhibition of growth at 10 µM (NCI-H23): 25%; inhibition of growth at 10 µM (SK-MEL-5): < 10%; inhibition of growth at 10 µM (SNB-75): 28%; inhibition of growth at 10 µM (UACC-257): < 10%; inhibition of growth at 10 µM (COLO 205): < 10%; inhibition of growth at 10 µM (786-0): < 10%; inhibition of growth at 10 µM (NCI-H226): 13%; inhibition of growth at 10 µM (HCT-116): < 10%; inhibition of growth at 10 µM (ACHN): < 10%; inhibition of growth at 10 µM (CAKI-1): 27%; inhibition of growth at 10 µM (OVCAR-4): 59%; inhibition of growth at 10 µM (U-251): < 10%; inhibition of growth at 10 µM (LOX IMVI): 14% |
| CCOC(=O)c1ccc(NC(=O)CSc2nc3ccccc3c(=O)n2CCc2ccccc2)cc1 | 11 | 13 | 45 | 12 | 18 | 29 | 10 | 33 | < 10 | 33 | 10 | 21 | 16 | < 10 | < 10 | 10 | 31 | 25 | 23 | 19 | inhibition of growth at 10 µM (OVCAR-8): 37%; inhibition of growth at 10 µM (SK-MEL-28): 14%; inhibition of growth at 10 µM (NCI-H460): 23%; inhibition of growth at 10 µM [2]: 34%; inhibition of growth at 10 µM (NCI-H23): 13%; inhibition of growth at 10 µM (SK-MEL-5): 21%; inhibition of growth at 10 µM (SNB-75): 39%; inhibition of growth at 10 µM (UACC-257): 29%; inhibition of growth at 10 µM (COLO 205): 22%; inhibition of growth at 10 µM (786-0): < 10%; inhibition of growth at 10 µM (NCI-H226): 25%; inhibition of growth at 10 µM (HCT-116): 14%; inhibition of growth at 10 µM (ACHN): 21%; inhibition of growth at 10 µM (CAKI-1): 19%; inhibition of growth at 10 µM (OVCAR-4): 10%; inhibition of growth at 10 µM (U-251): 28%; inhibition of growth at 10 µM (LOX IMVI): 22% |
